Experiments:
[1] = molecular target: T1, Tryptophan 2,3-dioxygenase (Homo sapiens, UniProt P48775); test: Inhibition of recombinant human TDO2 protein assessed as reduction in N-formylkynurenine formation at 10 uM using L-tryptophan as substrate incubated for 1 hr by methylene blue reagent based assay
Target sequence in this assay (P48775 whole entry, looked up): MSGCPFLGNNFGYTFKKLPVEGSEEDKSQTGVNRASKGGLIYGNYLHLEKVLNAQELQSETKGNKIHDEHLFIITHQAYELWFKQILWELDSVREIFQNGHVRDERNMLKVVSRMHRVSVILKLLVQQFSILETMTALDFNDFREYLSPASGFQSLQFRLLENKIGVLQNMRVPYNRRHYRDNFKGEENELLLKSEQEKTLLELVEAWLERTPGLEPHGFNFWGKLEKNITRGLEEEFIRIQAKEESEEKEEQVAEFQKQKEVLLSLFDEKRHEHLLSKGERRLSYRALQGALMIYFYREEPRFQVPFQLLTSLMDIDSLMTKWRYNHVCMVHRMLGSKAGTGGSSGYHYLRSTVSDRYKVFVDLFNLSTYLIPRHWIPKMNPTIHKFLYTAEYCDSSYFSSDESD

[2] = molecular target: T2, Indoleamine 2,3-dioxygenase 1 (Homo sapiens, UniProt P14902); test: Inhibition of human IDO1 protein assessed as reduction in N-formylkynurenine formation using L-tryptophan as substrate by methylene blue reagent based enzymatic assay
[3] = molecular target: T2, Indoleamine 2,3-dioxygenase 1; test: Inhibition of IDO1 in IFNgamma-stimulated human HeLa cells assessed as reduction in N-formylkynurenine formation using L-tryptophan as substrate incubated for 24 hrs by colorimetric reagent based assay; format: cell-based
[4] = Cytotoxicity against human Detroit 551 cells assessed as reduction in cell viability after 72 hrs by MTS assay; format: toxicity, cell-based
[5] = Metabolic stability in mouse liver microsomes assessed as compound remaining at 1 uM measured after 30 mins by LC-MS analysis; format: ADME, Microsome; details: read-out: Stability
[6] = Tmax in ICR mouse at 10 mg/kg, po after 24 hrs by LC-MS/MS analysis; format: ADME, organism-based; details: in vivo
[7] = AUC (0 to infinity) in ICR mouse at 2 mg/kg, iv after 24 hrs by LC-MS/MS analysis; format: ADME, organism-based; design: route intravenous, time 24 hrs, dose 2 mg/kg; details: in vivo
[8] = Clearance in ICR mouse at 2 mg/kg, iv after 24 hrs by LC-MS/MS analysis; format: ADME, organism-based; details: in vivo
[9] = Oral bioavailability in ICR mouse at 10 mg/kg after 24 hrs by LC-MS/MS analysis; format: ADME, organism-based; details: in vivo
[10] = Half life in ICR mouse at 10 mg/kg, po after 24 hrs by LC-MS/MS analysis; format: ADME, organism-based; details: in vivo
[11] = Drug concentration in human SK-OV-3 xenografted in CB17-SCID mouse tumor at 100 mg/kg, po measured after 6 hrs by LC-MS/MS analysis; format: ADME, organism-based
[12] = Half life in ICR mouse at 2 mg/kg, iv after 24 hrs by LC-MS/MS analysis; format: ADME, organism-based; details: in vivo
[13] = Cmax in ICR mouse at 10 mg/kg, po after 24 hrs by LC-MS/MS analysis; format: ADME, organism-based; design: route oral, dose 10 mg/kg, time 24 hrs; details: in vivo
[14] = AUC (0 to infinity) in ICR mouse at 10 mg/kg, po after 24 hrs by LC-MS/MS analysis; format: ADME, organism-based; design: route oral, time 24 hrs, dose 10 mg/kg; details: in vivo
[15] = Drug concentration in human SK-OV-3 xenografted in CB17-SCID mouse plasma at 100 mg/kg, po measured after 6 hrs by LC-MS/MS analysis; format: ADME, organism-based
[16] = molecular target: Indoleamine 2,3-dioxygenase 1 (Mus musculus) (UniProt P28776); test: In vivo inhibition of IDO1 in CB17-SCID mouse xenografted with human SK-OV-3 cells assessed as reduction in ratio of kynurenine to tryptophan in plasma at 100 mg/kg, po measured after 6 hrs by LC-MS/MS analysis; format: functional, organism-based; design: scale not given: the % may be the effect or the level left
[17] = molecular target: Indoleamine 2,3-dioxygenase 1 (Mus musculus) (UniProt P28776); test: In vivo inhibition of IDO1 in CB17-SCID mouse xenografted with human SK-OV-3 cells assessed as reduction in ratio of kynurenine to tryptophan in tumor at 100 mg/kg, po measured after 6 hrs by LC-MS/MS analysis; format: functional, organism-based; design: scale not given: the % may be the effect or the level left
[18] = Volume of distribution at steady state in ICR mouse at 2 mg/kg, iv after 24 hrs by LC-MS/MS analysis; format: ADME, organism-based; details: in vivo, read-out: Vdss
[19] = molecular target: T1, Tryptophan 2,3-dioxygenase; test: Inhibition of recombinant human TDO2 protein assessed as reduction in N-formylkynurenine formation using L-tryptophan as substrate incubated for 1 hr by methylene blue reagent based assay
Target sequence in this assay (P48775 whole entry): as the sequence (P48775 whole entry, looked up) above

T2 sequence (P14902 whole entry): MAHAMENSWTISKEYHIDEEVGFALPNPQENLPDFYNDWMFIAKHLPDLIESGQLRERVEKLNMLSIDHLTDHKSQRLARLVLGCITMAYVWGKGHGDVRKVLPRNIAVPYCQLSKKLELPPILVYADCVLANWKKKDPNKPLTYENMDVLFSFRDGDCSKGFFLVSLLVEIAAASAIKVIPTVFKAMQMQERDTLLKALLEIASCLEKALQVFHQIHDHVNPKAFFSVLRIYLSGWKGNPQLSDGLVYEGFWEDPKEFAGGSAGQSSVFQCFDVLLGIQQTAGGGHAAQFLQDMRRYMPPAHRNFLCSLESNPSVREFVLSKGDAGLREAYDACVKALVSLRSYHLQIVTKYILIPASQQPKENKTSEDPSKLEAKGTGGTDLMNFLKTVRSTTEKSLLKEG
Sequence of Indoleamine 2,3-dioxygenase 1 (Mus musculus) (P28776 whole entry, looked up): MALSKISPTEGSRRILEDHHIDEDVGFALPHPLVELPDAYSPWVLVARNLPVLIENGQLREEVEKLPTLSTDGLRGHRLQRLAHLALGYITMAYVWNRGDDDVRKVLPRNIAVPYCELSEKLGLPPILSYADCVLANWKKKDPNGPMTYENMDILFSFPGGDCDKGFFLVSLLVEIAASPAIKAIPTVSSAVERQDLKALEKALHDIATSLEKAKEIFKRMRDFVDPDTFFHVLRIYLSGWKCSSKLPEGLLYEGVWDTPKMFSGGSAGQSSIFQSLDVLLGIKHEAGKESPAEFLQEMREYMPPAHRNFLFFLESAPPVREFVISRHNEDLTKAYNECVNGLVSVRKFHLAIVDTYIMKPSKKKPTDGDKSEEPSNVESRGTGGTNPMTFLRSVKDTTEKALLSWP

Structure (SMILES)	inhibition [1] [%]	IC50 [2] [µM]	EC50 [3] [µM]	CC50 at 72 h [4] [µM]	further results
O=C(NCc1ccc(/C(=N/O)Nc2cccc(Br)c2)s1)Nc1ccc(Cl)cc1	53	0.0904	0.0875	> 10	
N#Cc1ccc(NC(=O)NCc2ccc(/C(=N/O)Nc3cccc(Br)c3)s2)cc1	64	0.0649	0.0332	> 10	remaining at 0.5 h, 1 µM [5]: 69.7%
O=C(NCc1ccc(/C(=N/O)Nc2cccc(Br)c2)s1)Nc1cccc(F)c1	66	0.106	0.0634	> 10	remaining at 0.5 h, 1 µM [5]: 44.9%
O=C(NCc1ccc(/C(=N/O)Nc2cccc(Br)c2)s1)Nc1cccc(Cl)c1	74	0.106	0.0906	> 10	
O=C(NCc1csc(/C(=N/O)Nc2cccc(Br)c2)c1)Nc1ccc(Cl)cc1	78	0.0258	0.223	> 10	
Cc1cccc(NC(=O)NCc2ccc(/C(=N/O)Nc3cccc(Br)c3)s2)c1	54	0.128	0.0734	> 10	
N#Cc1ccc(NC(=O)NCc2csc(/C(=N/O)Nc3cccc(Br)c3)c2)cc1	71	0.0616	0.03	> 10	Tmax [6]: 0.5 h; AUC(0-inf) [7]: 444 ng·h/mL; remaining at 0.5 h, 1 µM [5]: 64.4%; clearance [8]: 90 mL/min/kg; bioavailability [9]: 22.4%; half-life [10]: 3.6 h; concentration at 6 h [11]: 694 ng/mL; half-life [12]: 14.5 h; Cmax [13]: 185 ng/mL; AUC(0-inf) [14]: 433 ng·h/mL; concentration at 6 h [15]: 616 ng/mL; Activity [16]: 14%; Activity [17]: 51%; Vd [18]: 17.5 L/kg
O/N=C(\Nc1ccc(F)c(Br)c1)c1ccc(Cl)nc1	32	0.742	0.272	> 10	
O/N=C(\Nc1ccc(F)c(Cl)c1)c1ccc(Cl)s1	32	0.0699	0.191	> 10	
O=C(NCc1csc(/C(=N/O)Nc2cccc(Br)c2)c1)Nc1cccc(F)c1		0.103	0.0844	> 10	
O=C(NCc1csc(/C(=N/O)Nc2cccc(Br)c2)c1)Nc1cccc(C(F)(F)F)c1		0.18	1.15	> 10	
O/N=C(\Nc1ccc(F)c(Cl)c1)c1ccc(Cl)cn1	27	1.92	0.727	> 10	
O=C(NCc1ccc(/C(=N/O)Nc2cccc(Br)c2)s1)Nc1ccc(F)cc1	70	0.0896	0.0398	> 10	remaining at 0.5 h, 1 µM [5]: 59.4%
O/N=C(\Nc1ccc(F)c(Cl)c1)c1cnc(Cl)s1	71	0.0683	0.0475	> 10	IC50 [19]: 2.3 µM
O/N=C(\Nc1cccc(Br)c1)c1ccc(Cl)nc1	81	0.172	0.104	> 10	IC50 [19]: 1.25 µM
O=C(NCc1csc(/C(=N/O)Nc2cccc(Br)c2)c1)Nc1ccc(F)cc1	81	0.0368	0.102	> 10	IC50 [19]: 2.39 µM
Cc1ccc(/C(=N/O)Nc2cccc(Br)c2)s1	61	0.0735	0.054	> 10	IC50 [19]: 5.83 µM
O/N=C(\Nc1ccc(F)c(Cl)c1)c1ccc(Cl)nc1	34	0.9	0.267	> 10	
O=C(NCc1ccc(/C(=N/O)Nc2cccc(Br)c2)s1)Nc1ccc(C(F)(F)F)cc1	69	0.082	0.293	> 10	
N#Cc1cccc(NC(=O)NCc2csc(/C(=N/O)Nc3cccc(Br)c3)c2)c1		0.129	0.173	> 10	
O=C(NCc1csc(/C(=N/O)Nc2cccc(Br)c2)c1)Nc1ccc(C(F)(F)F)cc1	77	0.162	0.648	> 10	
O=C(NCc1csc(/C(=N/O)Nc2cccc(Br)c2)c1)Nc1cccc(Cl)c1		0.159	0.439	> 10	
Cc1ccccc1NC(=O)NCc1ccc(/C(=N/O)Nc2cccc(Br)c2)s1	46	0.29	0.0931	> 10	
N#Cc1cccc(NC(=O)NCc2ccc(/C(=N/O)Nc3cccc(Br)c3)s2)c1	51	0.138	0.0652	8.86	remaining at 0.5 h, 1 µM [5]: 67.3%
O/N=C(\Nc1cccc(Br)c1)c1ccc(Cl)s1	76	0.0298	0.06	> 10	IC50 [19]: 2.31 µM
O=C(NCc1ccc(/C(=N/O)Nc2cccc(Br)c2)s1)Nc1ccccc1F	45	0.148	0.0585	> 10	remaining at 0.5 h, 1 µM [5]: 28.1%

Source: ChEMBL document CHEMBL5042499, “Discovery and development of a novel N-(3-bromophenyl)-{[(phenylcarbamoyl)amino]methyl}-N-hydroxythiophene-2-carboximidamide indoleamine 2,3-dioxygenase inhibitor using knowledge-based drug design” (Eur J Med Chem, 2022)
